These results are taken from patent US12226384B2, “Peramivir solution type inhalant and preparation method therefor” (priority 2019, dated 2025).

For series [1] the following is noted: cited from earlier work.
Series [2] can be described thus: Equilibrium solubility of peramivir in saline solutions of different pH. More on the design: unit not given here. It is filed as physicochemical. The note with it: 25° C. As for the experimental part:
An excess amount of bulk peramivir was drawn and placed into a 25 ml volumetric flask, and 0.7% salt solution was applied to bring the volume to scale; the diluted solution was placed on a shaker and shaken for 24 h (25° C., 75 rpm), and then dilute hydrochloric acid (5%, V/V) was applied to regulate the pH to 4, 4.5, 5.0, and 5.5, respectively; the pH-regulated solutions were placed for another 48 h, and then filtered with a 0.45 μm filter membrane; the filtrates were diluted 250-fold with deionized water; the peramivir contents in the samples were determined by the HPLC method in peramivir standard.

For series [3] the following is noted: at respective timing.
Experimental: Experiment Method: 15 SD male rats were drawn to be randomly assigned into 3 groups, 5 rats in each group, and peramivir sodium chloride injection (Lot No.: 3139262, Guangzhou Nanxin Pharmaceutical Co., Ltd.) was administered via intravenous injection at a dose of 10 mg/kg. 0.20 ml blood was collected from orbital venous plexus at 5 min, 1 h, and 3 h after dosing to the rats, respectively; and then the rats were lethally anesthetized to harvest the lung tissues (including trachea). After being anticoagulated by heparin sodium, the whole blood was centrifuged (1000 rpm, 5 min) to harvest the plasma; the lung tissues were rinsed and weighed; the plasma and lung tissues were placed under −20° C. until used for testing.
The rats were lethally anesthetized at 5 min, 1 h, and 3 h after administration, respectively, with their weights weighed and recorded; then, they were exercised to remove lung tissues (including trachea); the lung tissues were rinsed with saline solution; the residual liquid was sucked dry with filter paper; the lung tissues with the residual liquid were placed in an EP tube, weighed with deduction of the weight of the EP tube the weighed weight was recorded; finally, the lung tissues were placed in a −20° C. refrigerator for storage. […]
Peramivir standard solutions with concentrations of 0.5, 1, 5, 10, 50, 100, 200 μg/mL, respectively, were formulated using 1 mg/mL mother solution according to the gradient dilution method. […] The intra-day lung tissue drug concentrations were calculated according to standard protocol. […]

Where two headings read alike, the source gives them in different places.

Turning to `CCC(CC)[C@H](NC(C)=O)[C@@H]1[C@H](O)[C@@H](C(=O)O)C[C@H]1NC(=N)N` [Peramivir, (−)-(1S, 2S, 3R, 4R)-2-hydroxy-3-[(1S)-1-acetamido-2-ethyl]butyl-4-guanidinocyclopenta-1-carbo xylic acid], the “stability of peramivir APIs” value in series [1] (48 h at 100° C.) is “stable”; in series [1] (acidic conditions) it was “unstable”; in series [1] (alkaline and neutral environments), “good stability”; in series [1] (light irradiation for 10 days) it was “good stability”. For the same compound, the “Equilibrium Solubility of Peramivir in Saline Solutions” value in series [2] (pH = 4.0, 0.7% salt solution) was determined as 33.93 ± 0.51; in series [2] (pH = 4.5, 0.7% salt solution), 26.53 ± 0.14; in series [2] (pH = 5.0, 0.7% salt solution), 22.84 ± 0.39; in series [2] (pH = 5.5, 0.7% salt solution), 22.04 ± 0.21; in series [2] (pH was not regulated with 0.7% salt solution (pH = 6.86)), 21.48 ± 0.31. Further, the “lung tissue concentration, aerosol inhalation relative to intravenous administration” value was 2.02˜41.58 times in series [3] (aerosol 10 mg/kg vs intravenous 10 mg/kg), 1.07˜4.58 times in series [3] (aerosol low dose 2.5 mg/kg vs intravenous 10 mg/kg) and 1.58˜5.31 times in series [3] (aerosol medium dose 5 mg/kg vs intravenous 10 mg/kg).
